Publication PMC11808136, “Screening and identification of host signaling pathways for alleviating influenza-induced production of pro-inflammatory cytokines, IP-10, IL-8, and MCP-1, using a U937 cell-based influenza model” (Frontiers in Microbiology, 2025)
Read-outs that look alike come from different tables or passages of the source.

Experiments:
[1] = test system: phosphorylation of p38 (p-p38); experiment: Western blot of phosphorylated p38 in influenza-infected U937 cells; format: cell-based, Human; conditions: for IC50: Homo sapiens, U-937, read-out: IC50 p-p38; for phosphorylation of p38: 24 h post-infection, western blot, cellular model
Experimental: Figure 6 TKIs repress cytokine production by suppressing the p38 pathway. […] Cells were lysed 24 h post-infection, and the levels of phosphorylated p38 and ERK (p-p38 and p-ERK) and total p38 and ERK were assessed by western blot. A quantification of phosphorylated p38 levels for each drug treatment was included in the right panel of each figure.
Cells were homogenized in RIPA lysis buffer containing a 1% protease inhibitor cocktail (Roche) to extract total protein. Equal amounts of protein homogenates were separated by SDS-PAGE (Bio-Rad) and transferred onto polyvinylidene difluoride membranes (pore size […]; Bio-Rad). The membranes were then blotted with monoclonal antibodies against GAPDH (1:1000, ZSGB-BIO), p38, phosphor-p38, ERK, phospho-ERK, STAT1, phosphor-STAT1 (1:1000; Cell Signaling Technology), STAT3, and phosphor-STAT3 (1:1000; Cell Signaling Technology), respectively. Protein levels were detected with horseradish peroxidase-tagged secondary antibodies and enhanced chemiluminescence western blot reagents (Advansta), followed by visualization using an enhanced chemiluminescence system (AlphaEase FluorChem System, Alpha Innotech Corp.). Bands were quantified using ImageJ (Ver. 1.46; NIH, Bethesda, MD).

[2] = test system: MCP-1 production in influenza virus-infected U937 cells (H3N2); experiment: cells; format: cell-based, Human
[3] = test system: STAT1 phosphorylation (p-STAT1); format: cell-based, Human
[4] = test system: IP-10 production in influenza virus-infected U937 cells (H7N8); experiment: cells; format: cell-based, Human
[5] = test system: MCP-1 production in influenza virus-infected U937 cells (H1N1); experiment: cells; format: cell-based
[6] = test system: IL-8 production in influenza virus-infected U937 cells (H3N2); experiment: cells; format: cell-based, Human
[7] = test system: IP-10 production in influenza virus-infected U937 cells (H1N1); experiment: cells; format: cell-based
[8] = test system: IP-10 production in influenza virus-infected U937 cells (H3N2); experiment: cells; format: cell-based, Human
U937 cells = conditions: for maximum non-toxic concentration: human
[9] = test system: IL-8 production in influenza virus-infected U937 cells (H7N8); experiment: cells; format: cell-based, Human
in vitro = conditions: human
[10] = test system: MCP-1 production in influenza virus-infected U937 cells (H7N8); experiment: cells; format: cell-based, Human
[11] = test system: IL-8 production in influenza virus-infected U937 cells (H1N1); experiment: cells; format: cell-based, Human; conditions: for EC50: read-out: EC50 IL-8
p38 = p38 (Homo sapiens, UniProt Q16539); experiment: Cell-free kinase activity assay, p38; format: biochemical; conditions: for p38 kinase activity in vitro: cell-free; for IC50: p38 kinases in vitro
Sequence of p38 (Q16539 whole entry): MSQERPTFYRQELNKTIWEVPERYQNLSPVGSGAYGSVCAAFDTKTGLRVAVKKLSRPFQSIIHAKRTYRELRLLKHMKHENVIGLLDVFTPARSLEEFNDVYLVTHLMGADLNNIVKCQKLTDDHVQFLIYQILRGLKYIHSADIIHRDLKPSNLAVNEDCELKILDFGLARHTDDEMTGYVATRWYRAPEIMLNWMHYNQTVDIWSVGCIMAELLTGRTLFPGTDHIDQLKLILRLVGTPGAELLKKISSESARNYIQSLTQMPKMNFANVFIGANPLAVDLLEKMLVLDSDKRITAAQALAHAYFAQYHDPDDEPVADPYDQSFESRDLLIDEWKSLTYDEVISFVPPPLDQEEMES

JAK2 = molecular target: T1, JAK2 (Homo sapiens, UniProt O60674); experiment: Cell-free kinase activity assay, JAK2; format: biochemical
T1 construct: purchased KinaseProfiler (Eurofin, Brussels, Belgium)
T1 sequence (O60674 whole entry): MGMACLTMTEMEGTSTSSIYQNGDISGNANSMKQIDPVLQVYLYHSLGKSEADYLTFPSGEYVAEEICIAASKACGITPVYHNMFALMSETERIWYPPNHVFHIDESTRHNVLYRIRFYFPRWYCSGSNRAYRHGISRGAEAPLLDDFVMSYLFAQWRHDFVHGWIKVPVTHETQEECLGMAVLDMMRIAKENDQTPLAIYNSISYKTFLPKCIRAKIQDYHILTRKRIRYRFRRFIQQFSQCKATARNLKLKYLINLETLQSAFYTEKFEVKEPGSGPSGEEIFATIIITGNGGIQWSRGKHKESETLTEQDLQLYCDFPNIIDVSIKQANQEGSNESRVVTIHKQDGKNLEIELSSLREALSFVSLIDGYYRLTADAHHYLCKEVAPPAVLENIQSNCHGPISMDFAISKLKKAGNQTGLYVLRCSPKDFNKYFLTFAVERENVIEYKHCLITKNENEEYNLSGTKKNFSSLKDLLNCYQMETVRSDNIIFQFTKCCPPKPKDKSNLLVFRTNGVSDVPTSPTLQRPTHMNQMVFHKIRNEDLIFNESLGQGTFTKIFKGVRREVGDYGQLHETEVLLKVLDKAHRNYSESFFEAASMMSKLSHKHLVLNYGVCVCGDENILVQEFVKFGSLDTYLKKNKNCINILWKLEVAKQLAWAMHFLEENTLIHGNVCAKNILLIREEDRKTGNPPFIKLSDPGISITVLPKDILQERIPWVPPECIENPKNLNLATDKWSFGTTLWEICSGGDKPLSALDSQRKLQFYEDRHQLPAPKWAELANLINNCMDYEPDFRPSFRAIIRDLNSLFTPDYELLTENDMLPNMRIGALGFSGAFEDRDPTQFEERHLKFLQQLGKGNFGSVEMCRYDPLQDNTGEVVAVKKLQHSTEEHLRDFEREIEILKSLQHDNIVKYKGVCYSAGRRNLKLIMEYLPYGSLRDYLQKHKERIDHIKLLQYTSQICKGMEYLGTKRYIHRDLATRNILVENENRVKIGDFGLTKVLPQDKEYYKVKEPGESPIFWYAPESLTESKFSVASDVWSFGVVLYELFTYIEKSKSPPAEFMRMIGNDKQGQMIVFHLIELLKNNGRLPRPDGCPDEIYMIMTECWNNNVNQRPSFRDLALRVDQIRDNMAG

JAK1 = JAK1 (Homo sapiens, UniProt P23458); experiment: Cell-free kinase activity assay, JAK1
Sequence of JAK1 (P23458 whole entry): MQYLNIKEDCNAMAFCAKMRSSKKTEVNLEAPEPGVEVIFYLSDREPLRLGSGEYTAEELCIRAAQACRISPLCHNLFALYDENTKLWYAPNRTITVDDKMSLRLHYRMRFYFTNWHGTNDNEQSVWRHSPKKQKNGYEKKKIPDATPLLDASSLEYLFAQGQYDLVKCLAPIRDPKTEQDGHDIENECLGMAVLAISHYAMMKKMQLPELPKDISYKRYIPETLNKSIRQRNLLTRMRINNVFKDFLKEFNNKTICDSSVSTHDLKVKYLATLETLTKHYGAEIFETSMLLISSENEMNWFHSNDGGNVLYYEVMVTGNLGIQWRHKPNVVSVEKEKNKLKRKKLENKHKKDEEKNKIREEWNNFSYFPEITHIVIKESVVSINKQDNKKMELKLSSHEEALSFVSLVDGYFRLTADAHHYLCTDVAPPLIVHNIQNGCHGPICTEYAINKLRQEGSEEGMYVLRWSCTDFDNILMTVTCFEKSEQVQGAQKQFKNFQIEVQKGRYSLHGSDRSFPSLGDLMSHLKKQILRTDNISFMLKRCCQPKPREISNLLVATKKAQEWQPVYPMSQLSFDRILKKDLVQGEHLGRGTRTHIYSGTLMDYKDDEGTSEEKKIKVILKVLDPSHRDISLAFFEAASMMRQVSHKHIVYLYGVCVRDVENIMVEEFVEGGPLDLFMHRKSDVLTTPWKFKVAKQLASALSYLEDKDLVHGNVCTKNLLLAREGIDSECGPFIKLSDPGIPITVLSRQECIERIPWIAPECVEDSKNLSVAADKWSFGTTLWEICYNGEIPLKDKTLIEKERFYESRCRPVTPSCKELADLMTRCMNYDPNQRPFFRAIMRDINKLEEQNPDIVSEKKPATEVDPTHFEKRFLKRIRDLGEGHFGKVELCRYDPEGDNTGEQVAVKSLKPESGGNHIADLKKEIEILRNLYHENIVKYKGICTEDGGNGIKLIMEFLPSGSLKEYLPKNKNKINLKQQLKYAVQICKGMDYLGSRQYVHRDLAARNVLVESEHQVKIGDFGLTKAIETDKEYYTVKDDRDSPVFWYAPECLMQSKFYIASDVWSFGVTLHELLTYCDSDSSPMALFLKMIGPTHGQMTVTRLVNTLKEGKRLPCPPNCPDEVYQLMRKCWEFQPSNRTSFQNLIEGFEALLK

[12] = Homo sapiens, U-937, read-out: EC50 IP-10
[13] = U937 cells, Table 1 section H1N1
[14] = Homo sapiens, U-937, read-out: EC50 IL-8
[15] = Homo sapiens, U-937, read-out: EC50 MCP-1
[16] = Homo sapiens, U-937, secondary screen, Supplemental Table 1
[17] = secondary screen, Supplemental Table 1
[18] = Homo sapiens, U-937, read-out: IC50 MCP-1

| Structure (SMILES) | IC50 [1] [nM] | EC50 ([2]; Homo sapiens, U-937) [nM] | STAT1 phosphorylation levels [3] | EC50 [4, 12] [nM] | EC50 ([6]; Homo sapiens, U-937) [nM] | EC50 ([8]; Homo sapiens, U-937) [nM] | CC50 (U937 cells; [13]) [nM] | maximum non-toxic concentration (U937 cells) [µM] | EC50 [9, 14] [nM] | CC50 (in vitro) [nM] | CC50 at 48 h (in vitro) [nM] | EC50 [10, 15] [nM] | IC50 ([11]; Homo sapiens, U-937) [nM] | EC50 [11, 16] [nM] | EC50 ([11]; Homo sapiens, U-937) [nM] | phosphorylation of p38 [1] | p38 kinase activity in vitro (p38) | IC50 (p38) [nM] | IC50 [5, 18] [nM] | EC50 [7, 12] [nM] | other results |
| --- | --- | --- | --- | --- | --- | --- | --- | --- | --- | --- | --- | --- | --- | --- | --- | --- | --- | --- | --- | --- | --- |
| Cc1nc(Nc2ncc(C(=O)Nc3c(C)cccc3Cl)s2)cc(N2CCN(CCO)CC2)n1 [Dasatinib] | 1000 | 18 | significantly reduced | 14 | 730 | 17 | > 100000 | 1 | 135 | > 100000 | > 100000 | 44 | 1900 | 2060 | 1890 |  |  |  |  |  | EC50 ([5]; Homo sapiens, U-937, U937 cells infected with H1N1, read-out: EC50 MCP-1): 190 nM; EC50 ([5]; Homo sapiens, U-937, secondary screen, Supplemental Table 1, read-out: EC50 MCP-1): 140 nM; IC50 ([5]; Homo sapiens, U-937, production of MCP-1 in U937 cells infected with influenza virus, Table 4, read-out: IC50 MCP-1): 190 nM; EC50 ([7]; Homo sapiens, U-937, U937 cells infected with H1N1; read-out: EC50 IP-10): 1160 nM; EC50 ([7]; Homo sapiens, U-937, secondary screen, Supplemental Table 1; read-out: EC50 IP-10): 1300 nM |
| CCS(=O)(=O)N1CC(CC#N)(n2cc(-c3ncnc4[nH]ccc34)cn2)C1 [Baricitinib] |  |  |  |  |  |  |  |  |  |  | 5380 |  |  |  |  | suppress | failed to inhibit | > 1000 |  |  | JAK2 activity (JAK2): inhibited; CC50 (in vitro; CC50): > 100000 nM |
| COc1cc(Nc2ncc(F)c(Nc3ccc4c(n3)NC(=O)C(C)(C)O4)n2)cc(OC)c1OC [R406] |  |  |  |  |  |  | > 100000 |  |  |  |  |  |  |  |  |  |  |  |  |  | EC50 [2]: 62 nM; EC50 ([4]; read-out: EC50 IP-10): 90 nM; EC50 ([5]; U937 cells infected with H1N1, read-out: EC50 MCP-1): 240 nM; EC50 ([5]; secondary screen, Supplemental Table 1, read-out: EC50 MCP-1): 270 nM; EC50 [6]: 690 nM; EC50 ([7]; U937 cells infected with H1N1; read-out: EC50 IP-10): 431 nM; EC50 ([7]; secondary screen, Supplemental Table 1; read-out: EC50 IP-10): 3500 nM; EC50 [8]: 5 nM; CC50 (U937 cells): > 100000 nM; CC50 (U937 cells; U937 cells, Table 1 section H3N2): > 100000 nM; CC50 (U937 cells; [17]): > 100000 nM; EC50 ([9]; read-out: EC50 IL-8): 88 nM; EC50 ([10]; read-out: EC50 MCP-1): 35 nM; EC50 [11]: 130 nM; EC50 [11, 17]: 820 nM |
| Cc1ccc(-n2nc(C(C)(C)C)cc2NC(=O)Nc2ccc(OCCN3CCOCC3)c3ccccc23)cc1 [BIRB 796, Doramapimod] |  |  |  |  |  |  |  |  |  | > 100000 |  |  | 5200 | 5220 |  |  |  |  | 10000 | 9200 | EC50 [5, 15]: 10000 nM |
| Cc1cc(Nc2nc(N[C@@H](C)c3ncc(F)cn3)ncc2Cl)n[nH]1 [AZD1480] | 5300 | 478 | significantly reduced | 57 | 7140 | 17 |  | 50 | 215 |  | 100000 | 714 | 7500 | 110 | 7690 | suppress | failed to inhibit | > 100000 | 6300 | 100 | EC50 ([5]; Homo sapiens, U-937, read-out: EC50 MCP-1, U937 cells infected with H1N1): 6250 nM; EC50 ([5]; Homo sapiens, U-937, read-out: EC50 MCP-1, secondary screen, Supplemental Table 1): 30 nM; IC50 ([7]; Homo sapiens, U-937, read-out: IC50 IP-10): 7110 nM; EC50 ([7]; Homo sapiens, U-937; read-out: EC50 IP-10): 7690 nM; JAK2 activity (JAK2; cell-free kinase assay): inhibited; CC50 (in vitro; CC50, secondary screen, Supplemental Table 1): 13500 nM; IC50 (JAK1): 430 nM; JAK1 activity (JAK1; cell-free kinase assay): inhibited |
